Experimental data published in publication PMC10146558, “Highly Cytotoxic Copper(II) Mixed-Ligand Quinolinonato Complexes: Pharmacokinetic Properties and Interactions with Drug Metabolizing Cytochromes P450” (Pharmaceutics, 2023).

What was measured:
CYP2C19 = target: T1, CYP2C19 (Homo sapiens, UniProt P33261); experiment: CYP2C19 activity ((S)-mephenytoin 4′-hydroxylation) in human liver microsomes; assay type: biochemical; details: free ligand, up to 100 μM
T1 construct: Cryopreserved pooled human liver microsomes were obtained from Xenotech; tissue Xenotech (Lenexa, KS, USA); host or cells: pooled human liver microsomes
Protocol: (§1) For each enzyme assay, the preliminary experiments to determine Michaelis constant (Km) and limiting velocity (Vmax) were performed to calculate the time of incubation (the specified time for which the reaction is still linear) and the values of substrate concentration (in the range corresponding to the value of Km).
(§2) The reaction mixtures were buffered by 0.1 M potassium phosphate buffer (pH 7.4) and contained a NADPH-generating system consisting of the isocitrate dehydrogenase (6 U/mL), NADP^+ (0.5 mM), isocitric acid (4 mM), and MgSO4 (5 mM). The final concentration levels of complexes were obtained by diluting a 10 mM solution with dimethyl sulfoxide (DMSO). It is known that DMSO can in some cases inhibit P450; the following measures were thus applied: (a) control samples containing organic solvent without the tested compounds were prepared and used as references; (b) DMSO levels were maintained below 0.1% to minimise the inhibition. Inhibition experiments were performed using five concentration levels of the tested compounds in the range of 10–100 µM. The maximum concentration was chosen so that in the case of inhibition, it would be possible to determine the inhibitory effect of the complexes and characterise them by determining the IC50 value. Additionally, an inhibitor-free control was used as a reference. Incubations were executed in two independent batches, and the samples were prepared and measured in triplicate at 37 °C. Analyses of the metabolites formed from the specific substrates were performed by HPLC using the Prominence system (Shimadzu, Kyoto, Japan) equipped with a LiChroCART 250-4 LiChrospher 100 RP-18 column, Chromolith® HighResolution RP-18 end-capped column (Merck, Darmstadt, Germany), or Kinetex Biphenyl column (Phenomenex, Torrace, CA, USA).
(§3) The apparent Ki values were determined by additional measurements using substrate concentrations corresponding to 1/2 Km, Km, 2 Km, and 4 Km in the case of inhibition. The type of model was selected on the basis of the Lineweaver–Burk and Dixon plots. The values of IC50 were obtained by analysing the plot of the percentage of activity remaining after inhibition versus the logarithm of the inhibitor concentration using the GraphPad Prism 6 software (La Jolla, CA, USA).

CYP3A4/5 = CYP3A4/5 activity (testosterone 6β-hydroxylation) in human liver microsomes
Protocol: For each enzyme assay, the preliminary experiments to determine Michaelis constant (Km) and limiting velocity (Vmax) were performed to calculate the time of incubation (the specified time for which the reaction is still linear) and the values of substrate concentration (in the range corresponding to the value of Km). The amount of human liver microsomes (HLM; expressed as the amount of CYP in pmol and the concentration of HLM protein in mg/mL in the reaction vessel) in the reaction was determined using previously established protocols [40].
The reaction mixtures were buffered by 0.1 M potassium phosphate buffer (pH 7.4) and contained a NADPH-generating system consisting of the isocitrate dehydrogenase (6 U/mL), NADP^+ (0.5 mM), isocitric acid (4 mM), and MgSO4 (5 mM). The final concentration levels of complexes were obtained by diluting a 10 mM solution with dimethyl sulfoxide (DMSO). It is known that DMSO can in some cases inhibit P450; the following measures were thus applied: (a) control samples containing organic solvent without the tested compounds were prepared and used as references; (b) DMSO levels were maintained below 0.1% to minimise the inhibition. Inhibition experiments were performed using five concentration levels of the tested compounds in the range of 10–100 µM. The maximum concentration was chosen so that in the case of inhibition, it would be possible to determine the inhibitory effect of the complexes and characterise them by determining the IC50 value. Additionally, an inhibitor-free control was used as a reference. Incubations were executed in two independent batches, and the samples were prepared and measured in triplicate at 37 °C.
The type of model was selected on the basis of the Lineweaver–Burk and Dixon plots. The values of IC50 were obtained by analysing the plot of the percentage of activity remaining after inhibition versus the logarithm of the inhibitor concentration using the GraphPad Prism 6 software (La Jolla, CA, USA).

[1] = test system: human liver microsomal cytochrome P450s
Protocol: (§4) The cuvette contained microsomes diluted to final concentration of CYP 1 µM in 50 mM potassium phosphate buffer (pH 7.4). The tested compounds were dissolved in the same buffer, and their concentrations in the experiments ranged from 0.002 to 33.310 µM. The UV-Visible spectra were recorded at room temperature by repetitive scanning between 300 and 700 nm using Varian 500 UV/VIS spectrophotometer (Agilent Technologies, Wakefield, MA, USA). Changes of absorbance in the range of the Soret’s region (380–450 nm) were plotted against the concentration of the studied compounds. Data were analysed using GraphPad Prism 6 software (La Jolla, CA, USA).

cytochrome P450 = test system: cytochrome P450; design: method as in PMID 26911729; details: ref [50]; cited from earlier work
CYP3A4 = CYP3A4 (Homo sapiens, UniProt P08684); experiment: CYP3A4 activity (midazolam 1′-hydroxylation) in human liver microsomes; details: Dixon and Lineweaver–Burk plots
Protocol: as §1, §2, §3

[2] = test system: human liver microsomal cytochrome P450s; experiment: Difference spectra (UV-visible spectral titration) with human liver microsomes; details: read-out: Ks (spectral binding constant); spectral differences at 386 nm, CYP 1 µM, pH 7.4, room temperature
Protocol: as §4

Sequence of CYP3A4 (P08684 2-503): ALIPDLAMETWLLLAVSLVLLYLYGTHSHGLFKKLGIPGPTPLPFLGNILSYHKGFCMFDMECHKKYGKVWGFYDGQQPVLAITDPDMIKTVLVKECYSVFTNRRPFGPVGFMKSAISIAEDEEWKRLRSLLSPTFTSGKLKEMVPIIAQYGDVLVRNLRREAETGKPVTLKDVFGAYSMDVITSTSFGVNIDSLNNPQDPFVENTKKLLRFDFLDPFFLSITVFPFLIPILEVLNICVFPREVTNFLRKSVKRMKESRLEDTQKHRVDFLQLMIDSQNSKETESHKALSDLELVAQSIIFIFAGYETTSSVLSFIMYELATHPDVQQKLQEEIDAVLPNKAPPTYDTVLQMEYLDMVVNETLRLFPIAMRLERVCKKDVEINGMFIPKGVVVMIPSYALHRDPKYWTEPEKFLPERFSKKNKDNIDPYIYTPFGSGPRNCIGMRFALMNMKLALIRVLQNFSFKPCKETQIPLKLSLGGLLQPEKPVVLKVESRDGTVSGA
T1 sequence (P33261 whole entry): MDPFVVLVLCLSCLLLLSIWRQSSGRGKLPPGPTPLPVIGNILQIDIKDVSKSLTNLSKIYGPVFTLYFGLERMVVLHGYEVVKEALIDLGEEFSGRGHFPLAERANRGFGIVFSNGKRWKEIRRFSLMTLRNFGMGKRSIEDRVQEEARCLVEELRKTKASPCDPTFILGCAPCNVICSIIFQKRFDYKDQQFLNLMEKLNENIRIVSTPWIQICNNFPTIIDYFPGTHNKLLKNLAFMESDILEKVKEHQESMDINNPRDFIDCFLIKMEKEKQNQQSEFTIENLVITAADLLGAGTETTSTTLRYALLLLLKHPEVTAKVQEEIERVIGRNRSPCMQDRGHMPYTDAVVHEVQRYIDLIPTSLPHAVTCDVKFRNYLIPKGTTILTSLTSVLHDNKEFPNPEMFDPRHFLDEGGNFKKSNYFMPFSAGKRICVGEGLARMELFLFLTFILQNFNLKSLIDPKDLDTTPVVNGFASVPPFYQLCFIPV

O=c1c(O)c(-c2ccccc2)[nH]c2ccccc12 [Hqui, 2-phenyl-3-hydroxy-1H-quinolin-4-one, reference compound]
Decrease in CYP2C19 activity (CYP2C19): 66%
CYP3A4/5 activity remaining (testosterone 6β-hydroxylation), % of basal activity (CYP3A4/5; at 100 μM): ca. 60%
Changes in difference spectra on interaction with microsomal CYPs [1]: no significant changes

CC(=O)CC(C)=O.Cc1ccnc2c1ccc1c(C)ccnc12.O=[N+]([O-])[O-].O=[N+]([O-])[O-].[Cu+2] [[Cu(acac)(4,7-dimethyl-1,10-phenanthroline)(H2O)](NO3)2]
IC50 (cytochrome P450): ~10 µM

O.O.O.O=[N+]([O-])[O-].O=[N+]([O-])[O-].[Cu+2] [copper(II) nitrate trihydrate, reference compound]
Type of inhibition, CYP3A4 (midazolam 1′-hydroxylation) (CYP3A4): non-competitive
Ki (CYP3A4; read-out: Ki CYP3A4 (midazolam 1′-hydroxylation assay), substrate ½ Km to 4 Km): 8.25 ± 1.64 µM
Kd [2]: 9.81 ± 0.6 µM
Ki (CYP3A4/5; read-out: Ki CYP3A4/5 (testosterone 6β-hydroxylation assay), Dixon and Lineweaver–Burk plots, substrate ½ Km to 4 Km): 1.56 ± 0.25 µM

Cc1cc2cccnc2c2ncccc12 [mphen, 5-methyl-1,10-phenanthroline]
Changes in difference spectra on interaction with microsomal CYPs [1]: no significant changes
